Measurements: paper PMC8747035, “Design, Synthesis, and Biological Evaluation of 5,6,7,8-Tetrahydrobenzo[4,5]thieno[2,3-d]pyrimidines as Microtubule Targeting Agents” (Molecules, 2022)
“Also recorded” adds a separate entry of the source. Where two headings read alike, the source gives them in different places.

Legend:
SK-OV-3 MDR1-M6/6 cells = experiment: SRB assay in Pgp-expressing SK-OV-3 MDR1-M6/6 cells; type: cell-based; details: Homo sapiens, SKOV3-MDR1-M6/6, read-out: IC50 ± SD in SK-OV-3 MDR1-M6/6 Cells
Procedure: (§1) Comparison of the IC50 values in the parental SK-OV-3 and genetically manipulated SK-OV-3 MDR1-M6/6 cell line allows for the calculation of a relative resistance value, designated Rr. This value is calculated by dividing the IC50 value obtained in the Pgp-expressing SK-OV-3 MDR1-M6/6 cells by the IC50 obtained in the parental SK-OV-3 cells.
(§2) The antiproliferative and cytotoxic effects of the compounds in cancer cells were evaluated using the SRB assay as previously described. MDA-MB-435 cells were obtained from the Lombardi Cancer Center of Georgetown University (Washington, DC, USA). SK-OV-3 and HeLa cells were purchased from ATCC. Details about the generation of the SK-OV-3 MDR1-M6/6 and HeLa WTβIII cells were described previously. The IC50 values represent an average of three independent experiments, each conducted using triplicate points.
(§3) HeLa, A-10, SK-OV-3, and SK-OV-3 MDR1-M6/6 cells were grown in Basal Medium Eagle (Sigma-Aldrich, St. Louis, MO, USA) supplemented with 10% FBS (Hyclone, GE Life Sciences, Logan, UT, USA) 1% GlutaMAX (Gibco, Life Technologies, Waltham, MA, USA) and 50 µg/mL gentamycin (Life Technologies, USA). HeLa WTβIII cells were grown in Dulbecco’s Modified Eagle Medium (Life Technologies) supplemented with 10% FBS and 50 µg/mL gentamycin. MDA-MB-435 cells were maintained in Improved Minimum Essential Medium (Life Technologies) supplemented with 10% FBS and 25 µg/mL gentamycin. All cells were grown at 37 °C in a humidified environment with 5% CO2.

HeLa WTβIII cells = experiment: SRB assay in βIII-tubulin expressing HeLa WTβIII cells; type: cell-based; details: Homo sapiens, read-out: IC50 ± SD in HeLa WTβ3
Procedure: (§4) Compounds 4–8, 10, 12, and 13 were evaluated for their abilities to overcome βIII-tubulin mediated drug resistance using an isogenic HeLa cell line pair (Table 4). […] The Rr values (Table 4) were calculated by dividing the IC50 of the βIII-tubulin expressing line by the IC50 obtained in the parental HeLa cells.
as §2, §3

HeLa cells = experiment: SRB assay in HeLa cells; type: cell-based; details: Homo sapiens, read-out: IC50 ± SD in HeLa
Procedure: as §4, §2, §3

A-10 cells = experiment: Cellular microtubule depolymerization in A-10 cells (immunofluorescence); type: cell-based; details: for EC50: Rattus norvegicus, A10, 18 h, loss of 50% of interphase microtubules; for Microtubule depolymerization activity in A-10 cells: at a 10 µM concentration
Procedure: (§5) We investigated the microtubule depolymerization and the antiproliferative activities of compounds 4–14 (Table 2). […] We next evaluated the importance of the 4′-OMe group of compound 4 by replacing it with an isosteric 4′-SMe (5). […] Clearly, this further substantiated the importance of an S in the scaffold over an NH.
The effects of the compounds on cellular microtubules were evaluated in A-10 cells using indirect immunofluorescence microscopy. These cells were obtained from the American Type Culture Collection (ATCC) (Manassas, VA, USA). Cells were treated with the compounds of interest for 18 h, and the cells fixed with cold MeOH and microtubule structures were visualized using a β-tubulin antibody (Sigma-Aldrich, St. Louis, MO, USA). The concentration that caused loss of 50% of the interphase microtubules was defined as the EC50 and calculated as previously described. These values represent an average of at least three independent experiments.

Bovine brain tubulin = experiment: Inhibition of purified tubulin assembly (turbidity); type: biochemical; details: 10 µM tubulin, 30 °C; read-out: Inhibition of Tubulin Assembly IC50 ± SD
Procedure: (§6) Bovine brain tubulin was purified as described previously. The tubulin assembly assay has been described in detail. Briefly, 1.0 mg/mL of tubulin (10 µM) was preincubated for 15 min at 30 °C in 0.8 M monosodium glutamate (pH of 2 M stock solution adjusted to 6.6 with HCl), varying compound concentrations and 4% (v/v) DMSO as compound solvent. After the preincubation, the reaction mixtures were placed on ice and 0.4 mM GTP was added. The reaction mixtures were transferred to cuvettes at 0 °C in a recording spectrophotometer equipped with an electronic temperature controller. After baselines were established, the temperature was elevated over about 30 s to 30 °C, and changes in turbidity were monitored at 350 nm for 20 min. The compound concentration that caused a 50% reduction in increase in turbidity, interpolated from the values obtained with defined compound concentrations, was defined as the IC50 value. The assay to measure inhibition of [^3H]colchicine binding was described in detail previously. Briefly, 0.1 mg/mL (1.0 µM) tubulin was incubated at 37 °C with 5.0 µM [3H]colchicine and potential inhibitors at 5.0 µM. Incubation was for 10 min, at which point the reaction had reached 40–60% of the maximum colchicine that can be bound in reaction mixtures without inhibitor. The [^3H]colchicine was a product of PerkinElmer, USA. CA-4 was a generous gift of Dr. G. R. Pettit, Arizona State University.

SK-OV-3 cells = experiment: SRB assay in SK-OV-3 cells; type: cell-based; details: Homo sapiens, read-out: IC50 ± SD in SK-OV-3 Cells
Procedure: as §1, §2, §3

MDA-MB-435 cells = experiment: Antiproliferative SRB assay in MDA-MB-435 cells; type: cell-based, human; details: read-out: IC50 ± SD in MDA-435 Cells
Procedure: as §5, §2, §3

tubulin = experiment: Inhibition of [3H]colchicine binding to tubulin; parameters: species or system Bovine; details: compound at 5 μM, 5.0 µM [3H]colchicine, 1.0 µM tubulin
Procedure: as §6, with “Incubation was for 10 min, at which point the reaction had reached 40–60% of the maximum colchicine that can be bound in reaction mixtures without inhibitor.” left out, “USA.” for “USA. CA-4 was a generous gift of Dr. G. R. Pettit, Arizona State University.”

MDA-MB-435 tumors = experiment: MDA-MB-435 xenograft model; type: in vivo, nude mice; details: 15 mg/kg i.p. 3 times a week
Procedure: Compound 4 was selected for further evaluation in an in vivo xenograft mouse study in light of its nanomolar potency in vitro in the NCI-60 cancer cell line panel and its potent microtubule depolymerization activity. The in vivo effects of 4 were tested in the MDA-MB-435 xenograft model (Figure 5).
MDA-MB-435 tumor fragments were implanted s.c. into the flanks of female nude mice. […] Compound 4 was dissolved in a 50:50 Cremophor EL/DMSO mixture and further dissolved in PBS for a final concentration of 10:10:80 Cremophor EL:DMSO:PBS (v/v). […] Tumor volumes and mouse weights were measured 2–3 times a week. A two-way ANOVA with Dunnett’s post-hoc tests including all treatment groups in the trial was used to determine significant differences in tumor volumes between drug-treated and untreated control groups on each measurement day. These animal studies were performed at the University of Texas Health Science Center in San Antonio in compliance with an approved Institutional Animal Care and Use protocol.
MDA-MB-435 tumors were implanted into the flanks of nude mice and allowed to grow until they reached a volume of ~200 mm^3. […] Tumor volumes and mouse weights were measured 2–3 times a week. Statistical significance was evaluated by two-way ANOVA (time vs. drug) with Dunnett’s post-hoc tests. A statistically significant difference in tumor volume was detected on day 14 between mice treated with 4 (* p = 0.0384) and untreated control tumors.

Compound | IC50 (SK-OV-3 MDR1-M6/6 cells) | IC50 (HeLa WTβIII cells) | IC50 (HeLa cells) | EC50 (A-10 cells) | IC50 (Bovine brain tubulin) | IC50 (SK-OV-3 cells) | IC50 (MDA-MB-435 cells; Homo sapiens) | IC50 (MDA-MB-435 cells) | Inhibition of Colchicine Binding (% inhibition ± SD) (tubulin) | Antitumor effects on MDA-MB-435 tumor volume vs control (MDA-MB-435 tumors) | Microtubule depolymerization activity in A-10 cells (A-10 cells)
CC(=O)O[C@H]1C(=O)[C@@]2(C)[C@H]([C@H](OC(=O)c3ccccc3)[C@]3(O)C[C@H](OC(=O)[C@H](O)[C@@H](NC(=O)c4ccccc4)c4ccccc4)C(C)=C1C3(C)C)[C@]1(OC(C)=O)CO[C@@H]1C[C@@H]2O [Paclitaxel, paclitaxel, reference compound] | – | 24 ± 3 nM | 2.8 ± 0.4 nM | – | – | 5 ± 0.6 nM | – | – | – | did not reach statistical significance | –
COc1ccc(/C=C\c2cc(OC)c(OC)c(OC)c2)cc1O [CA-4, combretastatin A-4] | – | – | – | 13 nM | 1000 ± 90 nM | – | 3.4 ± 0.6 nM | – | – | – | –
COc1ccc2c(c1)CCCN2c1nc(C)nc2sc3c(c12)CCCC3 [Compound 12, 4-(6-Methoxy-3,4-dihydroquinolin-1(2H)-yl)-2-methyl-5,6,7,8-tetrahydrobenzo[4,5]thieno[2,3-d]pyrimidine] | 223 ± 9.4 nM | 203 ± 12 nM | 191 ± 8.1 nM | 150 nM | – | 178 ± 1.1 nM | 125 ± 14 nM | – | – | – | –
CSc1ccc(Nc2nc(C)nc3sc4c(c23)CCCC4)cc1 [Compound 11, 2-Methyl-N-(4-(methylthio)phenyl)-5,6,7,8-tetrahydrobenzo[4,5]thieno[2,3-d]pyrimidin-4-amine] | – | – | – | – | – | – | – | – | – | – | did not show any activity; also recorded: Not MT active ^c
Cc1nc(Nc2ccc3c(O)cccc3c2)c2c3c(sc2n1)CCCC3 [Compound 14, 6-((2-Methyl-5,6,7,8-tetrahydrobenzo[4,5]thieno [2,3-d]pyrimidin-4-yl)amino)naphthalen-1-ol] | – | – | – | – | – | – | – | – | – | – | did not show any activity; also recorded: Not MT active ^c
COc1ccc(Nc2nc(C)nc3sc4c(c23)CCCC4)cc1 [Compound 9, N-(4-methoxyphenyl)-2-methyl-5,6,7,8-tetrahydrobenzo[4,5]thieno[2,3-d]pyrimidin-4-amine] | – | – | – | – | – | – | – | – | – | – | did not show any activity; also recorded: Not MT active ^c

More lines, main results first:

IC50 (SK-OV-3 MDR1-M6/6 cells) | IC50 (HeLa WTβIII cells) | IC50 (HeLa cells) | EC50 (A-10 cells) | IC50 (Bovine brain tubulin) | IC50 (SK-OV-3 cells) | IC50 (MDA-MB-435 cells; Homo sapiens) | IC50 (MDA-MB-435 cells) | Inhibition of Colchicine Binding (% inhibition ± SD) (tubulin) | Compound | Antitumor effects on MDA-MB-435 tumor volume vs control (MDA-MB-435 tumors) | Microtubule depolymerization activity in A-10 cells (A-10 cells)
74.1 ± 11 nM | 44.1 ± 4.8 nM | 64.3 ± 4.3 nM | 70 nM | 490 ± 80 nM | 71.8 ± 5.3 nM | < 40 nM | 38.6 ± 5.6 nM | 94.0 ± 2.0% | CSc1ccc(N(C)c2nc(N)nc3sc4c(c23)CCCC4)cc1 [Compound 5, N4-methyl-N4-(4-(methylthio)phenyl)-5,6,7,8-tetrahydrobenzo[4,5]thieno[2,3-d] pyrimidine-2,4-diamine] | – | –
57.5 ± 0.5 nM | 81.3 ± 5.2 nM | 87.9 ± 8.8 nM | 52 nM | 560 ± 90 nM | 47.7 ± 1.2 nM | 53 ± 0.3 nM | – | 96.0 ± 0.40% | COc1ccc(N(C)c2nc(C)nc3sc4c(c23)CCCC4)cc1 [Compound 8, N-(4-methoxyphenyl)-N,2-dimethyl-5,6,7,8-tetrahydrobenzo[4,5]thieno[2,3-d]pyrimidin-4-amine] | – | –
209 ± 40 nM | 108 ± 8.6 nM | 146 ± 14 nM | 157 nM | 540 ± 80 nM | 136 ± 15 nM | 87.7 ± 4.7 nM | – | 89.0 ± 0.20% | CSc1ccc(N(C)c2nc(C)nc3sc4c(c23)CCCC4)cc1 [Compound 10, N,2-dimethyl-N-(4-(methylthio)phenyl)-5,6,7,8-tetrahydrobenzo[4,5]thieno[2,3-d]pyrimidin-4-amine] | – | –
143 ± 244 nM | 139 ± 20 nM | 170 ± 34 nM | 118 nM | – | 142 ± 22 nM | 81.3 ± 8.4 nM | – | – | COc1cccc2cc(N(C)c3nc(C)nc4sc5c(c34)CCCC5)ccc12 [Compound 13, N-(5-methoxynaphthalen-2-yl)-N,2-dimethyl-5,6,7,8-tetrahydrobenzo[4,5]thieno[2,3-d]pyrimidin-4-amine] | – | –
91.7 ± 12 nM | 80.3 ± 6.4 nM | 123 ± 12 nM | 121 nM | – | 92.5 ± 3.3 nM | 59.6 ± 11.8 nM | – | – | COc1ccc2c(c1)CCCN2c1nc(N)nc2sc3c(c12)CCCC3 [Compound 6, 4-(6-Methoxy-3,4-dihydroquinolin-1(2H)-yl)-5,6,7,8-tetrahydrobenzo[4,5]thieno[2,3-d]-pyrimidin-2-amine] | – | –
47.1 ± 7.6 nM | 38 ± 3.9 nM | 57.2 ± 8.5 nM | 45 nM | 490 ± 60 nM | 37 ± 6.2 nM | < 40 nM | 36.8 ± 5.2 nM | 95.0 ± 0.40% | COc1ccc(N(C)c2ncnc3sc4c(c23)CCCC4)cc1 [Compound 7, N-(4-methoxyphenyl)-N-methyl-5,6,7,8-tetrahydrobenzo[4,5]thieno[2,3-d]pyrimidin-4-amine] | – | –
